Article PMC6753678, “Fueling Open Innovation for Malaria Transmission-Blocking Drugs: Hundreds of Molecules Targeting Early Parasite Mosquito Stages” (Frontiers in Microbiology, 2019)
Where two headings read alike, the source gives them in different places.

Legend:
[1] = tested on: P. falciparum late stage (stages IV-V) gametocytes; parameters: method as in Almela et al 2016; conditions: TCAMS screen comparison; ref Almela et al 2016; read-out: Pf GCT ATP IC50; cited from earlier work
[2] = tested on: HepG2 cells; assay: HepG2 cytotoxicity assay; conditions: HepG2 cytotoxicity unified across the three screens
How it was run: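 Cells at 2,500 per well in MEM with 10% fetal bovine serum and 1% NEAA were exposed to test compounds for 48 h at 37°C, 5% CO2. Viability was read by fluorescence, with percent inhibition calculated against 50 μM doxorubicin (positive) and DMSO (negative) controls.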

[3] = tested on: P. falciparum female gametocytes; parameters: method as in Miguel-Blanco et al 2017; conditions: TCAMS screen comparison; ref Miguel-Blanco et al 2017; read-out: Pf FGAA IC50; cited from earlier work
[4] = tested on: HepG2 cells; conditions: cited from earlier work
[5] = tested on: P. falciparum female gametocytes; assay: P. falciparum female gametogenesis assay (Pf FGAA); conditions: 1: YES; 0: NO
[6] = tested on: P. falciparum late stage (stages IV-V) gametocytes; assay: P. falciparum late stage gametocyte ATP depletion assay (Pf GC-ATP); conditions: 1: YES; 0: NO
[7] = value reported with the Pf FGAA screen, ref Miguel-Blanco et al 2017
[8] = value reported with the Pf GCT ATP screen, ref Almela et al 2016

| Compound | IC50 [1] [µM] | Unified cytotox [2] [µM] | IC50 [3] [µM] | HepG2 cytoxicity [4, 7] [µM] | Is compound selective in assay? Pf FGAA active? [5] | Is compound selective in assay? Pf GC-ATP active? [6] | HepG2 cytoxicity [4, 8] [µM] |
| --- | --- | --- | --- | --- | --- | --- | --- |
| CCN(CC)/C(=N/C(=N)NCc1ccc(Cl)cc1Cl)NCCCCCCN/C(=N\C(=N)NCc1ccc(Cl)cc1Cl)N(CC)CC [TCMDC-131819] | 0.3 | 36.73 | 4.75 | 36.73 | 0 (0: NO) | 1 (1: YES) |  |
| CCCCN(CCCC)/C(=N/C(=N)NCc1ccc(Cl)c(Cl)c1)NCCCCCCN/C(=N\C(=N)NCc1ccc(Cl)c(Cl)c1)N(CCCC)CCCC [TCMDC-131821] | 0.62 | 13.18 | 2.51 | 13.96 | 0 (0: NO) | 1 (1: YES) | 12.4 |
| COc1cc2nc(NCCCN3CCCCC3)nc(NCc3ccccc3)c2cc1OC [TCMDC-132012] | 0.3 | 7.89 | 0.9 | 6.84 | 0 (0: NO) | 1 (1: YES) | 8.94 |
| CCc1c(CCNCCCCCCNC(C)Cc2ccc3c(c2CC)OCO3)ccc(OC)c1OC.Cl (centres unmarked) [TCMDC-132052] | 0.33 | 2.78 | 0.48 | 2.46 | 0 (0: NO) | 0 (0: NO) | 3.1 |
| CCc1c(CCNCCCCCCNC(C)(C)Cc2ccc3c(c2CC)OCO3)ccc(OC)c1OC.Cl [TCMDC-132055] | 0.27 | 4.32 | 1.22 | 4.27 | 0 (0: NO) | 1 (1: YES) | 4.37 |
| Nc1c(Cl)cc(C(O)CNCCCCCOCCCc2ccc(O)c3ncccc23)cc1Cl.O=C(O)/C=C/C(=O)O (centres unmarked) [TCMDC-132088] | 0.45 | 6.14 | 2.1 | 7.76 | 0 (0: NO) | 1 (1: YES) | 4.51 |
| O=C(O)C(F)(F)F.O=S(=O)(NCCN1CCCC1)c1cccc(-c2ccc(CNC3Cc4ccccc4C3)cc2)c1 [TCMDC-132241] | 2.15 | 7.23 | 3.1 | 6.46 | 0 (0: NO) | 0 (0: NO) | 8 |
| COc1ccc(CNC2Cc3ccccc3C2)cc1-c1ccc(S(=O)(=O)NCCN2CCCC2)cc1.O=C(O)C(F)(F)F [TCMDC-132248] | 1.38 | 7.08 | 1.99 | 5.89 | 0 (0: NO) | 0 (0: NO) | 8.28 |
| COc1ccc(CNC2Cc3ccccc3C2)cc1-c1ccc(OC)c(S(=O)(=O)NCCN2CCCC2)c1.O=C(O)C(F)(F)F [TCMDC-132251] | 1.14 | 11.89 | 2.7 | 7.17 | 0 (0: NO) | 1 (1: YES) | 16.6 |
| Cc1cccc2nc(-c3ccc(-c4ccc(CNCc5ccc(CN)cc5)cc4)s3)[nH]c12.O=C(O)C(F)(F)F [TCMDC-132809] | 0.86 | 19.40 | 0.47 | 14.79 | 1 (1: YES) | 1 (1: YES) | 24 |
| NCc1ccc(CNCc2cccc(-c3ccc(-c4nc5cc(C(F)(F)F)ccc5[nH]4)cc3)c2)cc1.O=C(O)C(F)(F)F [TCMDC-132811] | 0.86 | 19.47 | 0.83 | 14.65 | 1 (1: YES) | 1 (1: YES) | 24.3 |
| FC(F)(F)c1ccc2[nH]c(-c3ccc(-c4ccc(CNCCN5CCNCC5)cc4)s3)nc2c1.O=C(O)C(F)(F)F [TCMDC-132862] | 1.29 | 9.89 | 3 | 12.88 | 0 (0: NO) | 0 (0: NO) | 6.9 |
